US11564928B1, “Cannabinoid receptor type 2 (CB2) modulators and uses thereof” (Teon Therapeutics, Inc., priority 2020, dated 2023)
Read-outs that look alike come from different tables or passages of the source.

How the values were obtained:
human CB2 receptor [1] = molecular target: T1, human CB2 receptor (Homo sapiens (Human), UniProt P34972); experiment: CB2 receptor binding assay ([3H]CP-55,940 displacement, HEK-293 membranes); conditions: membranes of HEK-293 cells with human recombinant CB2R, [3H]CP-55,940, read-out: CB2 IC50
T1 sequence (P34972 whole entry): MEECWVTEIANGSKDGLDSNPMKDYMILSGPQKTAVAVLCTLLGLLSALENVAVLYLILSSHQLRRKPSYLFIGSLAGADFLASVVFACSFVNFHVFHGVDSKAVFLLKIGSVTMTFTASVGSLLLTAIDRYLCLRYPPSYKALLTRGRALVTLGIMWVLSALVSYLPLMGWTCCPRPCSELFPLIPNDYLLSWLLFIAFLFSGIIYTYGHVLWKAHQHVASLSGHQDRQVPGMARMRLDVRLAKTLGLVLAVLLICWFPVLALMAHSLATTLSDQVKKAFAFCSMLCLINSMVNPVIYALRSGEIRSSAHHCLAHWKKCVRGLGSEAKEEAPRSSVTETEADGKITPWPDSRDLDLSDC

human recombinant CB1R = human recombinant CB1R (Homo sapiens (Human), UniProt P21554); experiment: CB1 receptor binding assay ([3H]CP-55,940 displacement, HEK-293 membranes); conditions: membranes of HEK-293 cells with human recombinant CB1R, [3H]CP-55,940, read-out: CB1 IC50
Sequence of human recombinant CB1R (P21554 whole entry): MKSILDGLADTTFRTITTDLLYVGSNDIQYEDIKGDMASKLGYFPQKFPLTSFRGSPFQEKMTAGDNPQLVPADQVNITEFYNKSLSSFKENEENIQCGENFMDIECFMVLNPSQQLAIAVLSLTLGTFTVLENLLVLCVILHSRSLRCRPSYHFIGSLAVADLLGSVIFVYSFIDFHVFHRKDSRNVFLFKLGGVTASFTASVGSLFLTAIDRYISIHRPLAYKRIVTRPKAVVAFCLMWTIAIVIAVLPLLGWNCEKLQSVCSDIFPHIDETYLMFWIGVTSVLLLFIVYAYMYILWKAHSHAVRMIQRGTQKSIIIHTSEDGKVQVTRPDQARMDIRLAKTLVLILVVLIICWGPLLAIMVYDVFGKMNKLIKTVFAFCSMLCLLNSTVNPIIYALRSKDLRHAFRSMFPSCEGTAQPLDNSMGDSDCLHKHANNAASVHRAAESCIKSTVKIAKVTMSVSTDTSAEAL
How it was run: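 Membranes from HEK-293 cells expressing human recombinant CB1R or CB2R were incubated with [3H]CP-55,940 and compound for 120 min at 37 °C in duplicate. The CB2R incubation buffer was 50 mM Tris-HCl, 5 mM MgCl2, 1 mM CaCl2, 0.2% BSA, pH 7.4. Bound radioactivity was filtered and counted, and IC50 was converted to Ki by Cheng–Prusoff.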

human CB2 receptor [2] = molecular target: T1, human CB2 receptor; experiment: CB2 receptor cAMP assay (DiscoverX HitHunter cAMP XS+); format: cell-based
Procedure: cAMP Hunter CHO-K-1 cell lines expressing human CB2 receptor (Eurofins) were expanded from freezer stocks according to standard procedures. Cells were seeded in a total volume of 20 μL into white walled, 384-well microplates and incubated at 37° C. for the appropriate time prior to testing. cAMP modulation in agonist, inverse agonist or antagonist format was determined using the DiscoverX HitHunter cAMP XS+ assay (Eurofins). For agonist determination, cells were incubated with sample in the presence of EC80 forskolin to induce response. Media was aspirated from cells and replaced with 15 μL 2:1 HBSS/10 mM Hepes: cAMP XS+Ab reagent. Intermediate dilution of sample stocks was performed to generate 4× sample in assay buffer containing 4× EC80 forskolin. 5 μL of 4× sample was added to cells and incubated at 37° C. or room temperature for 30 or 60 minutes. Final assay vehicle concentration was 1%. For inverse agonist determination, cells were preincubated with sample in the presence of EC20 forskolin. Media was aspirated from cells and replaced with 15 μL, 2:1 HBSS/10 mM Hepes: cAMP XS+Ab reagent. Intermediate dilution of sample stocks was performed to generate 4× sample in assay buffer containing 4× EC20 forskolin. 5 μL of 4× sample was added to cells and incubated at 37° C. or room temperature for 30 or 60 minutes. Final assay vehicle concentration was 1%. For antagonist determination, cells were pre-incubated with sample followed by agonist challenge at the EC80 concentration. Media was aspirated from cells and replaced with 10 μL 1:1 HBSS/Hepes: cAMP XS+Ab reagent. 5 μL of 4× compound was added to the cells and incubated at 37° C. or room temperature for 30 minutes. 5 μL of 4× EC80 agonist was added to cells and incubated at 37° C. or room temperature for 30 or 60 minutes. EC80 forksolin was included. After appropriate compound incubation, assay signal was generated through incubation with 20 μL cAMP XS+ED/CL lysis cocktail for one hour followed by incubation with 20 μL, cAMP XS+EA reagent for three hours at room temperature. Microplates were read following signal generation with a PerkinElmer Envision instrument for chemiluminescent signal detection. Compound activity was analyzed using CBIS data analysis suite (ChemInnovation, CA). For agonist mode assay, percentage activity is calculated using the following formula: % Activity=100%×(1−(mean RLU of test sample−mean RLU of MAX control)/(mean RLU of vehicle control−mean RLU of MAX control)). For inverse agonist mode assay, percentage activity is calculated using the following formula: % Inverse Agonist Activity=100%×((mean RLU of test sample−mean RLU of EC20 forskolin)/(mean RLU of forskolin positive control−mean RLU of EC20 control)). For antagonist mode assay, percentage inhibition is calculated using the following formula: % Inhibition=100%×(mean RLU of test sample−mean RLU of EC80 control)/(mean RLU of forskolin positive control−mean RLU of EC80 control). Data are analyzed and IC50 is calculated using GraphPad Prism 5 and the model “log(inhibitor) vs. response—Variable slope”.

[3] = CHO-K1, read-out: Max Stimulation %
[4] = cAMP Hunter CHO-K-1 cells expressing human CB2 receptor, read-out: cAMP IC50

Structure (SMILES)	IC50 (human CB2 receptor [1])	IC50 (human recombinant CB1R)	IC50 (human CB2 receptor [2])	Emax (human CB2 receptor [2]; [3])	IC50 (human CB2 receptor [1]; class symbols)	IC50 (human recombinant CB1R; class symbols)	IC50 (human CB2 receptor [2]; [4])	Emax (human CB2 receptor [2]; CHO-K1, cAMP Hunter CHO-K-1 cells expressing human CB2 receptor, read-out: Max Stimulation %)
CC1CCC(NC(=O)c2c(O)c3cc(-c4ccc(OC(F)F)cc4)cnc3n(CCN3CCOCC3)c2=O)CC1 (stereo not drawn) [Compound 15, 6-(4-(difluoromethoxy)phenyl)-4-hydroxy-N-(4-methylcyclohexyl)-1-(2-morpholinoethyl)-2-oxo-1,2-dihydro-1,8-naphthyridine-3-carboxamide]	8.8 nM	> 10000 nM	21 nM	75%	–	–	–	–
CC1CCC(NC(=O)c2c(O)c3cc(-c4ccc5c(c4)OCCO5)cnc3n(CCN3CCOCC3)c2=O)CC1 (stereo not drawn) [Compound 19, 6-(2,3-dihydrobenzo[b][1,4]dioxin-6-yl)-4-hydroxy-N-(4-methylcyclohexyl)-1-(2-morpholinoethyl)-2-oxo-1,2-dihydro-1,8-naphthyridine-3-carboxamide]	20 nM	> 10000 nM	43 nM	81%	–	–	–	–
COc1ccc(-c2cnc3c(c2)c(O)c(C(=O)NC2CCC(C)CC2)c(=O)n3CCN2CCOCC2)cc1 (stereo not drawn) [Compound 20, 4-hydroxy-6-(4-methoxyphenyl)-N-(4-methylcyclohexyl)-1-(2-morpholinoethyl)-2-oxo-1,2-dihydro-1,8-naphthyridine-3-carboxamide]	4.7 nM	> 10000 nM	7 nM	93%	–	–	–	–
COc1ccc(-c2cnc3c(c2)cc(C(=O)NC2CC4(CCC4)C2)c(=O)n3CCN2CCOCC2)cc1 [Compound 29, 6-(4-methoxyphenyl)-1-(2-morpholinoethyl)-2-oxo-N-(spiro[3.3]heptan-2-yl)-1,2-dihydro-1,8-naphthyridine-3-carboxamide]	1.2 nM	> 10000 nM	5 nM	107%	–	–	–	–
COc1ccc(-c2cnc3c(c2)cc(C(=O)NC(C)c2ccc(F)cc2)c(=O)n3CCN2CCOCC2)cc1 (stereo not drawn) [Compound 30, N-(1-(4-fluorophenyl)ethyl)-6-(4-methoxyphenyl)-1-(2-morpholinoethyl)-2-oxo-1,2-dihydro-1,8-naphthyridine-3-carboxamide]	1.2 nM	> 10000 nM	17 nM	89%	–	–	–	–
COc1ccc(-c2cnc3c(c2)cc(C(=O)NC2CC4(COC4)C2)c(=O)n3CCN2CCOCC2)cc1 [Compound 31, 6-(4-methoxyphenyl)-1-(2-morpholinoethyl)-2-oxo-N-(2-oxaspiro[3.3]heptan-6-yl)-1,2-dihydro-1,8-naphthyridine-3-carboxamide]	–	–	–	78%	< 100 nM	> 1000 nM	127 nM	–
O=C(NC1CC2(CCC2)C1)c1cc2cc(-c3ccc4c(c3)OCCO4)cnc2n(CCN2CCOCC2)c1=O [Compound 33, 6-(2,3-dihydrobenzo[b][1,4]dioxin-6-yl)-1-(2-morpholinoethyl)-2-oxo-N-(spiro[3.3]heptan-2-yl)-1,2-dihydro-1,8-naphthyridine-3-carboxamide]	4 nM	> 10000 nM	6 nM	–	–	–	–	–
N#Cc1ccc(-c2cnc3c(c2)cc(C(=O)NC2CC4(CCC4)C2)c(=O)n3CCN2CCOCC2)nc1 [Compound 36, 6-(5-cyanopyridin-2-yl)-1-(2-morpholinoethyl)-2-oxo-N-(spiro[3.3]heptan-2-yl)-1,2-dihydro-1,8-naphthyridine-3-carboxamide]	5 nM	> 10000 nM	13 nM	89%	–	–	–	–
CC(C)(NC(=O)c1cc2cc(-c3ccc(C#N)cn3)cnc2n(CCN2CCOCC2)c1=O)c1ccc(F)cc1 [Compound 40, 6-(5-cyanopyridin-2-yl)-N-(2-(4-fluorophenyl)propan-2-yl)-1-(2-morpholinoethyl)-2-oxo-1,2-dihydro-1,8-naphthyridine-3-carboxamide]	7 nM	> 10000 nM	10 nM	74%	–	–	–	–
N#Cc1ccc(-c2cnc3c(c2)cc(C(=O)NC2(c4ccc(F)cc4)CC2)c(=O)n3CCN2CCOCC2)nc1 [Compound 42, 6-(5-cyanopyridin-2-yl)-N-(1-(4-fluorophenyl)cyclopropyl)-1-(2-morpholinoethyl)-2-oxo-1,2-dihydro-1,8-naphthyridine-3-carboxamide]	23 nM	> 10000 nM	14 nM	73%	–	–	–	–
N#Cc1ccc(-c2cnc3c(c2)cc(C(=O)NC2CC4(CCC4)C2)c(=O)n3CCN2CCOCC2)cc1 [Compound 44, 6-(4-cyanophenyl)-1-(2-morpholinoethyl)-2-oxo-N-(spiro[3.3]heptan-2-yl)-1,2-dihydro-1,8-naphthyridine-3-carboxamide]	7.2 nM	6080 nM	–	–	–	–	> 1000 nM	–
CC(NC(=O)c1cc2cc(-c3ccc(C#N)cc3)cnc2n(CCN2CCOCC2)c1=O)c1ccc(F)cc1 (stereo not drawn) [Compound 45, 6-(4-cyanophenyl)-N-(1-(4-fluorophenyl)ethyl)-1-(2-morpholinoethyl)-2-oxo-1,2-dihydro-1,8-naphthyridine-3-carboxamide]	–	–	15 nM	70%	< 100 nM	> 1000 nM	–	–
N#Cc1ccc(-c2cnc3c(c2)cc(C(=O)NC24CC(C2)C4)c(=O)n3CCN2CCOCC2)cc1 [Compound 46, N-(bicyclo[1.1.1]pentan-1-yl)-6-(4-cyanophenyl)-1-(2-morpholinoethyl)-2-oxo-1,2-dihydro-1,8-naphthyridine-3-carboxamide]	6 nM	8610 nM	14 nM	77%	–	–	–	–
C[C@@H](NC(=O)c1cc2cc(-c3ccc(OC(F)F)cn3)cnc2n(CCN2CCOCC2)c1=O)c1ccc(F)cc1 [Compound 48, (R)-6-(5-(difluoromethoxy)pyridin-2-yl)-N-(1-(4-fluorophenyl)ethyl)-1-(2-morpholinoethyl)-2-oxo-1,2-dihydro-1,8-naphthyridine-3-carboxamide]	4.5 nM	> 10000 nM	–	–	–	–	0.2 nM	66%
COc1ccc(-c2cnc3c(c2)cc(C(=O)NC24CC(C2)C4)c(=O)n3CCN2CCOCC2)cc1 [Compound 50, N-(bicyclo[1.1.1]pentan-1-yl)-6-(4-methoxyphenyl)-1-(2-morpholinoethyl)-2-oxo-1,2-dihydro-1,8-naphthyridine-3-carboxamide]	4.3 nM	2780 nM	0.6 nM	80%	–	–	–	–
CC1CCC(NC(=O)c2cc3cc(-c4ccc(OC(F)F)cc4)cnc3n(CCN3CCOCC3)c2=O)CC1 (stereo not drawn) [Compound 51, 6-(4-(difluoromethoxy)phenyl)-N-(4-methylcyclohexyl)-1-(2-morpholinoethyl)-2-oxo-1,2-dihydro-1,8-naphthyridine-3-carboxamide]	2.1 nM	> 10000 nM	2 nM	108%	–	–	–	–
O=C(NC1CC2(CCC2)C1)c1cc2cc(-c3ccc(OC(F)F)cc3)cnc2n(CCN2CCOCC2)c1=O [Compound 52, 6-(4-(difluoromethoxy)phenyl)-1-(2-morpholinoethyl)-2-oxo-N-(spiro[3.3]heptan-2-yl)-1,2-dihydro-1,8-naphthyridine-3-carboxamide]	10 nM	962 nM	1 nM	77%	–	–	–	–
